Patent publication US10392383B2, “3-(1H-benzo[d]imidazol-2-yl)-1H-pyrazolo[4,3-b]pyridines and therapeutic uses thereof” (Samumed, LLC, priority 2015, dated 2019)

Experiments:
[1] = test system: Wnt activity (Sp5-Luc reporter, Wnt-responsive promoter) in SW480 colon carcinoma cells; assay: Wnt activity screening assay: Sp5-Luc reporter gene assay in SW480 cells; assay type: cell-based; conditions: Homo sapiens; for inhibition at 10 µM: read-out: percent inhibition at 10 μM (given for EC50 of >10 μM); for EC50: overnight incubation, 10-point curve starting from 10 μM
Description: The screening assay for Wnt activity is described as follows. Reporter cell lines can be generated by stably transducing cancer cell lines (e.g., colon cancer) or primary cells (e.g., IEC-6 intestinal cells) with a lentiviral construct that includes a Wnt-responsive promoter driving expression of the firefly luciferase gene.
SW480 colon carcinoma cells were transduced with a lentiviral vector expressing luciferase with a human Sp5 promoter consisting of a sequence of eight TCF/LEF binding sites. SW480 cells stably expressing the Sp5-Luc reporter gene and a hygromycin resistance gene were selected by treatment with 150 μg/mL of hygromycin for 7 days. These stably transduced SW480 cells were expanded in cell culture and used for all further screening activities. Each compound was dissolved in DMSO as a 10 mM stock and used to prepare compound source plates. Serial dilution (1:3, 10-point dose-response curves starting from 10 μM) and compound transfer was performed using the ECHO 550 (Labcyte, Sunnyvale, Calif.) into 384-well white solid bottom assay plates (Greiner Bio-One) with appropriate DMSO backfill for a final DMSO concentration of 0.1%. For Sp5-Luc reporter gene assays, the cells were plated at 4,000 cells/well in 384-well plates with medium containing 1% fetal bovine serum and incubated overnight at 37° C. and 5% CO2. Following incubation, 20 μl of BrightGlo luminescence reagent (Promega) was added to each well of the 384-well assay plates. The plates were placed on an orbital shaker for 2 min and then luminescence was quantified using the Envision (Perkin Elmer) plate reader. Readings were normalized to DMSO only treated cells, and normalized activities were utilized for EC50 calculations using the dose-response log (inhibitor) vs. response-variable slope (four parameters) nonlinear regression feature available in GraphPad Prism 5.0 (or Dotmatics). For EC50 of >10 μM, the percent inhibition at 10 μM is provided.

[2] = test system: primary human fibroblasts derived from IPF patients (LL29 cells) treated with TGF-β1; assay: Inhibition of the fibrotic process: αSMA staining in TGF-β1-treated LL29 fibroblasts; assay type: cell-based; conditions: Fibroblast; for inhibition at 10 µM: LL29 fibroblasts treated with TGF-β1, Table 4, read-out: percent inhibition at 10 μM (given in parentheses for EC50 >10 μM); for EC50: 96 h, LL29 fibroblasts treated with TGF-β1 (20 ng/mL), 4 days, Table 4
Description: Representative compounds were screened using primary human fibroblasts (derived from IPF patients) treated with TGF-β1 to determine their ability to inhibit the fibrotic process.
Human Fibroblast Cell Culture: Primary human fibroblasts derived from IPF patients (LL29 cells) [^1Xiaoqiu Liu, et. al., “Fibrotic Lung Fibroblasts Show Blunted Inhibition by cAMP Due to Deficient cAMP Response Element-Binding Protein Phosphorylation”, Journal of Pharmacology and Experimental Therapeutics (2005), 315(2), 678-687; ^2Watts, K. L., et. al., “RhoA signaling modulates cyclin D1 expression in human lung fibroblasts; implications for idiopathic pulmonary fibrosis”, Respiratory Research (2006), 7(1), 88] were obtained from American Type Culture Collection (ATCC) and expanded in F12 medium supplemented with 15% Fetal Bovine Serum and Penicillin/Streptomycin.
Compound Screening: Each compound was dissolved in DMSO as a 10 mM stock and used to prepare compound source plates. Serial dilution (1:2, 11-point dose-response curves from 10 μM to […]) and compound transfer was performed using the ECHO 550 (Labcyte, Sunnyvale, Calif.) into 384-well clear bottom assay plates (Greiner Bio-One) with appropriate DMSO backfill for a final DMSO concentration of 0.1%. LL29 cells are plated at 1,500 cells/well in 80 μL/well F12 medium supplemented with 1% Fetal Bovine Serum. One hour after addition of the cells, TGF-β1 (Peprotech; 20 ng/mL) was added to the plates to induce fibrosis (ref. 1 and 2 above). Wells treated with TGF-β1 and containing DMSO were used as controls. Cells were incubated at 37° C. and 5% CO2 for 4 days. Following incubation for 4 days, SYTOX green nucleic acid stain (Life Technologies [Thermo Fisher Scientific]) was added to the wells at a final concentration of 1 μM and incubated at room temperature for 30 min. Cells were then fixed using 4% formaldehyde (Electron Microscopy Sciences), washed 3 times with PBS followed by blocking and permeabilization using 3% Bovine Serum Albumin (BSA; Sigma) and 0.3% Triton X-100 (Sigma) in PBS. Cells were then stained with antibody specific to α-smooth muscle actin (αSMA; Abcam) (ref. 1 and 2 above) in 3% Bovine Serum Albumin (BSA; Sigma) and 0.3% Triton X-100 (Sigma) in PBS, and incubated overnight at 4° C. Cells were then washed 3 times with PBS, followed by incubation with Alexa Flor-647 conjugated secondary antibody (Life Technologies [Thermo Fisher Scientific]) and DAPI at room temperature for 1 hour. Cells were then washed 3 times with PBS and plates were sealed for imaging. αSMA staining was imaged by excitation at 630 nm and emission at 665 nm and quantified using the Compartmental Analysis program on the CellInsight CX5 (Thermo Scientific). Dead or apoptotic cells were excluded from analysis based on positive SYTOX green staining. % of total cells positive for αSMA were counted in each well and normalized to the average of 11 wells treated with TGF-β1 on the same plate using Dotmatics' Studies Software. The normalized averages (fold change over untreated) of 3 replicate wells for each compound concentration were used to create dose-responses curves and EC50 values were calculated using non-linear regression curve fit in the Dotmatics' Studies Software. For EC50 of >10 μM, the percent inhibition at 10 μM is provided.

Row | Compound | EC50 [1] [µM] | inhibition at 10 µM [1] [%] | inhibition at 10 µM [2] [%] | EC50 [2] [µM]
1 | c1cc(-c2ccncc2)c2nc(-c3n[nH]c4ccc(-c5cncc(OC6CCNCC6)c5)nc34)[nH]c2c1 [Compound 576, 5-(5-(Piperidin-4-yloxy)pyridin-3-yl)-3-(4-(pyridin-4-yl)-1H-benzo[d]imidazol-2-yl)-1H-pyrazolo[4,3-b]pyridine] | > 10 | 25.7 | 9.2 | > 10
2 | c1ccc(COc2cncc(-c3ccc4[nH]nc(-c5nc6c(-c7ccncc7)cccc6[nH]5)c4n3)c2)cc1 [Compound 582, 5-(5-(Benzyloxy)pyridin-3-yl)-3-(4-(pyridin-4-yl)-1H-benzo[d]imidazol-2-yl)-1H-pyrazolo[4,3-b]pyridine] | > 10 | 39.1 |  | 1.42
3 | c1cc(-c2ccncc2)c2nc(-c3n[nH]c4ccc(-c5cnccn5)nc34)[nH]c2c1 [Compound 584, 5-(Pyrazin-2-yl)-3-(4-(pyridin-4-yl)-1H-benzo[d]imidazol-2-yl)-1H-pyrazolo[4,3-b]pyridine] | > 10 | 7.4 | 10 | > 10
4 | O=C(CC1CCNCC1)Nc1cncc(-c2ccc3[nH]nc(-c4nc5c(-c6ccccn6)cccc5[nH]4)c3n2)c1 [Compound 593, 2-(Piperidin-4-yl)-N-(5-(3-(4-(pyridin-2-yl)-1H-benzo[d]imidazol-2-yl)-1H-pyrazolo[4,3-b]pyridin-5-yl)pyridin-3-yl)acetamide] | > 10 | 26.6 |  | 1.37
5 | Cc1cn(-c2cccc3[nH]c(-c4n[nH]c5ccc(C6=CCNCC6)nc45)nc23)cn1 [Compound 618, 3-(4-(4-Methyl-1H-imidazol-1-yl)-1H-benzo[d]imidazol-2-yl)-5-(1,2,3,6-tetrahydropyridin-4-yl)-1H-pyrazolo[4,3-b]pyridine] | > 10 | 1.2 | 7.7 | > 10
6 | Cc1cn(-c2cccc3[nH]c(-c4n[nH]c5ccc(-c6cncc(N7CC(N)C7)n6)nc45)nc23)cn1 [Compound 622, 1-(6-(3-(4-(4-Methyl-1H-imidazol-1-yl)-1H-benzo[d]imidazol-2-yl)-1H-pyrazolo[4,3-b]pyridin-5-yl)pyrazin-2-yl)azetidin-3-amine] | > 10 | 12.6 | 0 | > 10
7 | Cc1cn(-c2cccc3[nH]c(-c4n[nH]c5ccc(-c6cncc(OCCN(C)C)c6)nc45)nc23)cn1 [Compound 627, N,N-Dimethyl-2-((5-(3-(4-(4-methyl-1H-imidazol-1-yl)-1H-benzo[d]imidazol-2-yl)-1H-pyrazolo[4,3-b]pyridin-5-yl)pyridin-3-yl)oxy)ethan-1-amine] | > 10 | 38.1 |  | 6.76
8 | CN1CCN(c2cccc3[nH]c(-c4n[nH]c5ccc(-c6cnccn6)nc45)nc23)CC1 [Compound 648, 3-(4-(4-Methylpiperazin-1-yl)-1H-benzo[d]imidazol-2-yl)-5-(pyrazin-2-yl)-1H-pyrazolo[4,3-b]pyridine] | > 10 | 37.9 | 0 | > 10
9 | c1ccc2[nH]c(-c3n[nH]c4ccc(-c5cn[nH]c5)nc34)nc2c1 [Compound 651, 3-(1H-Benzo[d]imidazol-2-yl)-5-(1H-pyrazol-4-yl)-1H-pyrazolo[4,3-b]pyridine] | > 10 | 40.2 | 0 | > 10
10 | c1ccc2[nH]c(-c3n[nH]c4ccc(-c5cncc(OC6CCNCC6)c5)nc34)nc2c1 [Compound 656, 3-(1H-Benzo[d]imidazol-2-yl)-5-(5-(piperidin-4-yloxy)pyridin-3-yl)-1H-pyrazolo[4,3-b]pyridine] | > 10 | 4.9 | 45.9 | > 10
11 | Oc1cncc(-c2ccc3[nH]nc(-c4nc5ccccc5[nH]4)c3n2)c1 [Compound 661, 5-(3-(1H-Benzo[d]imidazol-2-yl)-1H-pyrazolo[4,3-b]pyridin-5-yl)pyridin-3-ol] | > 10 | 32.4 | 30.3 | > 10
12 | O=C(CC1CCNCC1)Nc1cncc(-c2ccc3[nH]nc(-c4nc5c(-c6ccsc6)cccc5[nH]4)c3n2)c1 [Compound 673, 2-(Piperidin-4-yl)-N-(5-(3-(4-(thiophen-3-yl)-1H-benzo[d]imidazol-2-yl)-1H-pyrazolo[4,3-b]pyridin-5-yl)pyridin-3-yl)acetamide] | > 10 | 14.9 |  | 2.78

Continued, in another order:

Row | EC50 [1] [µM] | Compound | inhibition at 10 µM [1] [%] | inhibition at 10 µM [2] [%] | EC50 [2] [µM]
13 | 0.257 | Cc1ncc(-c2ccc3[nH]nc(-c4nc5c(-c6ccoc6)cccc5[nH]4)c3n2)n1C [Compound 685, 5-(1,2-Dimethyl-1H-imidazol-5-yl)-3-(4-(furan-3-yl)-1H-benzo[d]imidazol-2-yl)-1H-pyrazolo[4,3-b]pyridine] |  |  | 5.04
14 | 4.21 | c1cc(-c2ccoc2)c2nc(-c3n[nH]c4ccc(-c5cncc(OCCN6CCCC6)c5)nc34)[nH]c2c1 [Compound 690, 3-(4-(Furan-3-yl)-1H-benzo[d]imidazol-2-yl)-5-(5-(2-(pyrrolidin-1-yl)ethoxy)pyridin-3-yl)-1H-pyrazolo[4,3-b]pyridine] |  |  | 2.44
15 | 1.37 | COc1cncc(-c2ccc3[nH]nc(-c4nc5c(-c6ccoc6)cccc5[nH]4)c3n2)c1 [Compound 692, 3-(4-(Furan-3-yl)-1H-benzo[d]imidazol-2-yl)-5-(5-methoxypyridin-3-yl)-1H-pyrazolo[4,3-b]pyridine] |  |  | 1.41
16 | > 10 | Cn1cc(-c2ccc3[nH]nc(-c4nc5c(-c6cccs6)cccc5[nH]4)c3n2)cn1 [Compound 700, 5-(1-Methyl-1H-pyrazol-4-yl)-3-(4-(thiophen-2-yl)-1H-benzo[d]imidazol-2-yl)-1H-pyrazolo[4,3-b]pyridine] | 37.8 |  | 0.391
17 | 4.19 | CN(C)CCOc1cncc(-c2ccc3[nH]nc(-c4nc5c(-c6cccs6)cccc5[nH]4)c3n2)c1 [Compound 707, N,N-Dimethyl-2-((5-(3-(4-(thiophen-2-yl)-1H-benzo[d]imidazol-2-yl)-1H-pyrazolo[4,3-b]pyridin-5-yl)pyridin-3-yl)oxy)ethan-1-amine] |  |  | 1.35
